# Source: patent US20230128252A1, “PHARMACEUTICAL COMPOSITIONS” (Shenzhen Pharmacin Co., Ltd., priority 2020, published 2023)
# Where two headings read alike, the source gives them in different places.
# What was measured:
# [1] = Skin permeability of clofazimine preparations (vertical Franz diffusion cells); format: in vitro ADME, NU/NU nude mice
# [2] = cited from earlier work; for time to reach peak plasma concentration (Tmax): oral administration
# [3] = cited from earlier work
# [4] = Compatibility of clofazimine and excipients (60° C., 3 days, HPLC); format: physicochemical; conditions: for Degradation total impurities: 60° C. for 3 days
# Procedure: Clofazimine was dissolved into different excipients with different mass ratios, then the mixture was placed in the condition of 60° C. for 3 days. The total degradation impurities were measured by HPLC and summarized below in Table 25. The excipients were classified by the results as below.
# [5] = Solubility of clofazimine in fatty acids; format: physicochemical; conditions: fatty acid, 25 °C
# [6] = preparation of clofazimine carbomer gel with organic solvents; format: physicochemical; conditions: Carbomer 940 gel in water, pH 7.0
# [7] = blood concentration after topical application in minipigs; format: in vivo, Bama minipigs
# Procedure: Studies were performed to evaluate the blood concentration-time curve after topical application of Formulations 10-12 (clofazimine 0.01%, 0.03% and 0.1%) in Bama minipigs. 24 Bama minipigs (12 male and 12 female) were randomly divided into 4 groups (n=6), three groups received a single topical application of Formulations 10-12 (clofazimine 0.01%, 0.03% and 0.1%). […] In above 4 groups, Formulations 10-12 were applicated to 5% body surface area of Bama minipigs, that is, 1.5 mg ointment/cm^2 (corresponding to 0.15, 0.45, 1.5 μg API/cm^2 respectively). […] A validated LC-MS/MS method was used to determine the concentration of clofazimine in plasma and the pharmacokinetic parameters were calculated (the standard curve range of clofazimine is 0.0100˜10.0 ng/mL).
# [8] = Solubility of clofazimine in aqueous media; format: physicochemical; conditions: aqueous medium, aqueous with cosolvent or surfactant or cyclodextrin, thermodynamic from solid; pH 4.5 + 0.25% SDS, 25° C.
# Procedure: Clofazimine was added to various aqueous media, at various pH values (2-5 mL) in a 10 mL glass vial, at 25° C., with stirring. […] This cycle was repeated until no further dissolution was observable. The suspension was then centrifuged and the supernatant filtered by microfiltration.
# [9] = test system: chronic discoid lupus erythematosus; conditions: human clinical study; cited from earlier work
# [10] = test system: imiquimod-induced psoriasis like mouse model; test: imiquimod-induced psoriasis like mouse model, PASI method; format: in vivo, C57BL/6J mice; conditions: Formulations 1-3, topical
# Excerpt: Fifty C57BL/6J mice were random divided into 5 groups, naïve group, model group, Formulation 1-3 groups. All mice were shaved on the back. Naïve group was the negative group and as the blank control. The other four groups were locally applied with 5% imiquimod cream (sold under the tradename Aldara®) once a day for a week. […] In the last three days, the changes of skin lesions were observed and evaluated by PASI method. PASI method: the scores of erythema, scale and infiltration thickening in the skin lesions were scored respectively, and the sum of the three scores was the total score. PASI scoring standard: 0, none; 1, mild; 2, moderate; 3, severe; 4, extremely severe.
smiles,measurement,setting,value
"CC(C)/N=c1\cc2n(-c3ccc(Cl)cc3)c3ccccc3nc-2cc1Nc1ccc(Cl)cc1 [Clofazimine, N,5-bis(4-chlorophenyl)-3-propan-2-ylimino phenazin-2-amine]","clofazimine content (Table 12, FIG. 3)","[1]; Gel, PEG 400 10 wt %",1.6000 μg/cm^2
same,"clofazimine content (Table 12, FIG. 3)","[1]; Gel, Transcutol",0.1894 μg/cm^2
same,"clofazimine content (Table 12, FIG. 3)","[1]; Gel, Tween 80 10 wt %",0.9800 μg/cm^2
same,"clofazimine content (Table 12, FIG. 3)","[1]; Gel, labrasol 10 wt %",0.8200 μg/cm^2
same,"clofazimine content (Table 12, FIG. 3)","[1]; Solvents (solution), PEG 400 99.9 wt %",0.2700 μg/cm^2
same,"clofazimine content (Table 12, FIG. 3)","[1]; Solvents (solution), Transcutol",0.0596 μg/cm^2
same,"clofazimine content (Table 12, FIG. 3)","[1]; Solvents (solution), Tween 80 99.9 wt %",0.2500 μg/cm^2
same,"clofazimine content (Table 12, FIG. 3)","[1]; Solvents (solution), labrasol 99.9 wt %",0.2600 μg/cm^2
same,clofazimine content,"[1]; gel: Carbomer 940 0.5, Transcutol 20, Lecithin 5 wt %, pH 7.0, clofazimine amount 0.01%",0.0568 ug/cm^2
same,clofazimine content,"[1]; gel: Carbomer 940 0.5, Transcutol 20, Lecithin 5 wt %, pH 7.0, clofazimine amount 0.02%",0.1971 ug/cm^2
same,clofazimine content,"[1]; gel: Carbomer 940 0.5, Transcutol 20, Lecithin 5 wt %, pH 7.0, clofazimine amount 0.05%",0.5394 ug/cm^2
same,clofazimine content,"[1]; gel: Carbomer 940 0.5, Transcutol 20, Lecithin 5 wt %, pH 7.0, clofazimine amount 0.1%",0.8014 ug/cm^2
same,clofazimine content,"[1]; gel: Carbomer 940 0.5, Transcutol 20, Lecithin 5 wt %, pH 7.0, clofazimine amount 0.2%",0.7102 ug/cm^2
same,clofazimine content,"[1]; gel: Carbomer 940 0.5, Transcutol 20, Lecithin 5 wt %, pH 7.0, clofazimine amount 0.5%",0.7512 ug/cm^2
same,clofazimine content,"[1]; gel: clofazimine 0.1, Carbomer 940 0.5, Transcutol 20, Lecithin 5 wt %, pH 6.0",0.4246 ug/cm^2
same,clofazimine content,"[1]; gel: clofazimine 0.1, Carbomer 940 0.5, Transcutol 20, Lecithin 5 wt %, pH 7.0",0.4146 ug/cm^2
same,clofazimine content,"[1]; gel: clofazimine 0.1, Carbomer 940 0.5, Transcutol 20, Lecithin 5 wt %, pH 8.0",0.3463 ug/cm^2
same,clofazimine content,"[1]; gel: clofazimine 0.1, Carbomer 940 0.5, Transcutol 20, Lecithin 5 wt %, pH 9.0",0.2970 ug/cm^2
same,clofazimine content,"[1]; gel: clofazimine 0.1, Carbomer 940 0.5, Transcutol 20, Lecithin 5 wt %, pH 9.5",0.2463 ug/cm^2
same,clofazimine content,"[1]; gel: clofazimine 0.1, Carbomer 940 0.5, Transcutol 20 wt %, pH 7.0, Control (water instead of penetration enhancer)",0.1331 ug/cm^2
same,clofazimine content,"[1]; gel: clofazimine 0.1, Carbomer 940 0.5, Transcutol 20 wt %, pH 7.0, lecithin 2%",0.2272 ug/cm^2
same,clofazimine content,"[1]; gel: clofazimine 0.1, Carbomer 940 0.5, Transcutol 20 wt %, pH 7.0, lecithin 3%",0.2745 ug/cm^2
same,clofazimine content,"[1]; gel: clofazimine 0.1, Carbomer 940 0.5, Transcutol 20 wt %, pH 7.0, lecithin 4%",0.3026 ug/cm^2
same,clofazimine content,"[1]; gel: clofazimine 0.1, Carbomer 940 0.5, Transcutol 20 wt %, pH 7.0, lecithin 5%",0.3578 ug/cm^2
same,clofazimine content,"[1]; gel: clofazimine 0.1, Carbomer 940 0.5, Transcutol 20 wt %, pH 7.0, lecithin 6%",0.3335 ug/cm^2
same,clofazimine content,"[1]; gel: clofazimine 0.1, Carbomer 940 0.5, Transcutol 20 wt %, pH 7.0, lecithin 10%",0.3968 ug/cm^2
same,clofazimine content,"[1]; gel: clofazimine 0.1, Carbomer 940 0.5, Transcutol 20 wt %, pH 7.0, lecithin 19%",0.2989 ug/cm^2
same,clofazimine content,"[1]; gel: clofazimine 0.1, Carbomer 940 0.5, Transcutol 20 wt %, pH 7.0, penetration enhancer 4 wt %: DMSO",0.1806 ug/cm^2
same,clofazimine content,"[1]; gel: clofazimine 0.1, Carbomer 940 0.5, Transcutol 20 wt %, pH 7.0, penetration enhancer 4 wt %: Ethanol",0.2055 ug/cm^2
same,clofazimine content,"[1]; gel: clofazimine 0.1, Carbomer 940 0.5, Transcutol 20 wt %, pH 7.0, penetration enhancer 4 wt %: Lecithin",0.9881 ug/cm^2
same,clofazimine content,"[1]; gel: clofazimine 0.1, Carbomer 940 0.5, Transcutol 20 wt %, pH 7.0, penetration enhancer 4 wt %: Octanol",0.6230 ug/cm^2
same,clofazimine content,"[1]; gel: clofazimine 0.1, Carbomer 940 0.5, Transcutol 20 wt %, pH 7.0, penetration enhancer 4 wt %: Oleic acid",0.2344 ug/cm^2
same,clofazimine content,"[1]; gel: clofazimine 0.1, Carbomer 940 0.5, Transcutol 20 wt %, pH 7.0, penetration enhancer 4 wt %: SDS (0.05%)",0.1829 ug/cm^2
same,clofazimine content,"[1]; gel: clofazimine 0.1, Carbomer 940 0.5, Transcutol 20 wt %, pH 7.0, penetration enhancer 4 wt %: Tween 20",0.1535 ug/cm^2
same,clofazimine content,"[1]; gel: clofazimine 0.1, Carbomer 940 0.5, Transcutol 20 wt %, pH 7.0, penetration enhancer 4 wt %: Tween 80",0.2484 ug/cm^2
same,clofazimine content,"[1]; gel: clofazimine 0.1, Carbomer 940 0.5 wt %, pH 7.0, solvent 10 wt % PEG 400, 4 hours",1.6000 ug/cm^2
same,clofazimine content,"[1]; gel: clofazimine 0.1, Carbomer 940 0.5 wt %, pH 7.0, solvent 10 wt % Transuctol, 4 hours",0.1894 ug/cm^2
same,clofazimine content,"[1]; gel: clofazimine 0.1, Carbomer 940 0.5 wt %, pH 7.0, solvent 10 wt % Tween 80, 4 hours",0.9800 ug/cm^2
same,clofazimine content,"[1]; gel: clofazimine 0.1, Carbomer 940 0.5 wt %, pH 7.0, solvent 10 wt % labrasol, 4 hours",0.8200 ug/cm^2
same,clofazimine content,"[1]; gel: clofazimine 0.1, Transcutol 20, Lecithin 5 wt %, pH 7.0, Carbomer 940 amount 0.5%",0.4871 ug/cm^2
same,clofazimine content,"[1]; gel: clofazimine 0.1, Transcutol 20, Lecithin 5 wt %, pH 7.0, Carbomer 940 amount 0.8%",0.3054 ug/cm^2
same,clofazimine content,"[1]; gel: clofazimine 0.1, Transcutol 20, Lecithin 5 wt %, pH 7.0, Carbomer 940 amount 1.0%",0.3205 ug/cm^2
same,clofazimine content,"[1]; inner skin, 4 hours, solution, clofazimine 100 mg in 99.9 g Ethanol",0.5565 ug/cm^2
same,clofazimine content,"[1]; inner skin, 4 hours, solution, clofazimine 100 mg in 99.9 g KHS-15",0.0660 ug/cm^2
same,clofazimine content,"[1]; inner skin, 4 hours, solution, clofazimine 100 mg in 99.9 g Laurocapram",0.3593 ug/cm^2
same,clofazimine content,"[1]; inner skin, 4 hours, solution, clofazimine 100 mg in 99.9 g Oleic acid",0.0577 ug/cm^2
same,clofazimine content,"[1]; inner skin, 4 hours, solution, clofazimine 100 mg in 99.9 g PEG 400",0.1174 ug/cm^2
same,clofazimine content,"[1]; inner skin, 4 hours, solution, clofazimine 100 mg in 99.9 g Transuctol",0.0596 ug/cm^2
same,clofazimine content,"[1]; inner skin, 4 hours, solution, clofazimine 100 mg in 99.9 g Tween 20",0.0639 ug/cm^2
same,clofazimine content,"[1]; inner skin, 4 hours, solution, clofazimine 100 mg in 99.9 g Tween 80",0.0660 ug/cm^2
same,time to reach peak plasma concentration (Tmax),[2]; fasted state,12 h
same,time to reach peak plasma concentration (Tmax),[2]; fed conditions,8 h
same,absorption rate,"[2]; oral, FDA Label information",45-62%
same,Log P,[3],7.48
same,pKa,[3],8.37
same,Water solubility,[3]; virtually insoluble,0.000225 mg/mL
same,"chemical stability (hydrolysis, oxidation)",[4],easily hydrolyzed and oxidized
same,Degradation total impurities,[4]; Campmul MCM (1:100),>1%
same,Degradation total impurities,[4]; Campmul MCM + water (1:100:800),>1%
same,Degradation total impurities,[4]; Gelucire 44/14 (1:100),>1%
same,Degradation total impurities,[4]; Oleic acid (1:50),0.5-1%
same,Degradation total impurities,[4]; Oleic acid + labrasol (1:50:100),>1%
same,Degradation total impurities,[4]; PEG 400 (1:400),>1%
same,Degradation total impurities,[4]; PEG 3350 (1:400),0-0.5%
same,Degradation total impurities,[4]; RH 40 (1:100),0-0.5%
same,Degradation total impurities,[4]; Stearyl alcohol (1:70),0-0.5%
same,Degradation total impurities,[4]; Tefose 63 (1:100),>1%
same,Degradation total impurities,[4]; Vaseline (1:3000),0-0.5%
same,Degradation total impurities,[4]; glycerin (1:2500),0-0.5%
same,Degradation total impurities,[4]; labrasol (1:100),0.5-1%
same,Degradation total impurities,[4]; labrasol + carbomer (1:100:5),0.5-1%
same,Degradation total impurities,[4]; labrasol + water (1:100:800),0.5-1%
same,Degradation total impurities,[4]; liquid paraffin (1:1000),0-0.5%
same,Degradation total impurities,[4]; oleic acid + labrasol + water (1:50:100:800),>1%
same,Degradation total impurities,[4]; propyl glycol (1:2500),0-0.5%
same,Degradation total impurities,[4]; transcutol + tween 80 (1:100:100),>1%
same,Degradation total impurities,[4]; transcutol + water (1:100:800),0.5-1%
same,Degradation total impurities,[4]; trascutol (1:100),>1%
same,Degradation total impurities,[4]; tween 80 (1:100),>1%
same,Degradation total impurities,[4]; tween 80 + water (1:100:800),>1%
same,chemical stability of clofazimine in lipid excipients,"[4]; lipid excipients such as PEG 3350, stearyl alcohol, vaseline, and liquid paraffin",enhanced chemical stability
same,solubility,"[5]; oil or lipid, Heptanoic acid",78.3 mg/mL
same,solubility,"[5]; oil or lipid, Hexanoic acid",80.7 mg/mL
same,solubility,"[5]; oil or lipid, Linoleic acid",90.2 mg/mL
same,solubility,"[5]; oil or lipid, Octanoic acid",56.3 mg/mL
same,solubility,"[5]; oil or lipid, Oleic acid",106 mg/mL
same,solubility,"[5]; organic solvent or mixture, Acetic acid",30.2 mg/mL
same,solubility,"[5]; organic solvent or mixture, Butyric acid",49.2 mg/mL
same,solubility,"[5]; organic solvent or mixture, Isovaleric acid",58.6 mg/mL
same,solubility,"[5]; organic solvent or mixture, Propionic acid",28.2 mg/mL
same,outcome of gel preparation,[6]; solvent Laurocapram,formation of separated layers
same,outcome of gel preparation,[6]; solvent Propylene glycol,clofazimine precipitation
same,clofazimine in plasma,"[7]; repeated dose (0.03%, bid, 9 applications)",a very low level of clofazimine could be detected in plasma
same,clofazimine in plasma,"[7]; single dose groups, majority of the samples",no clofazimine was detectable
same,clofazimine in plasma,"[7]; single dose groups, minority of samples in the 0.01% and 0.1% groups, 1.5 mg ointment/cm^2, 5% body surface area",very low level of clofazimine (close to the detection limit of the instrument)
same,gender difference in clofazimine absorption,"[7]; topical, male and female",No significant gender difference
same,solubility at 24 h,[8],0.71 mg/mL
same,remission of chronic discoid lupus erythematosus,[9],a majority of patients showed remission
same,treatment effect on the imiquimod-induced psoriasis like mouse model,[10],confirmed the treatment effect
